Measurements: ChEMBL document CHEMBL5046301, “pH-Responsive Antimicrobial Peptide with Selective Killing Activity for Bacterial Abscess Therapy” (J Med Chem, 2022)
The source made the active and inactive calls. The calls are words filed in the database; no cut-off is given here.

What was measured:
[1] = Cytotoxicity against mouse RAW264.7 cells assessed as inhibition of cell growth at pH 6.5 measured after 24 hrs by MTT assay; assay type: toxicity, cell-based
Pseudomonas aeruginosa [2] = test: Antimicrobial activity against Pseudomonas aeruginosa ATCC 27853 assessed as reduction in bacterial growth at pH 6.5 in presence of 50% serum; assay type: functional, organism-based
[3] = Hemolytic activity in human RBC assessed as hemoglobin release at pH 7.4 incubated for 1 hr; assay type: toxicity, cell-based; conditions: erythrocyte, pH 7.4, 1 h
[4] = Hemolytic activity against human RBC assessed as hemoglobin release at pH 6.5 incubated for 1 hrs; assay type: toxicity, cell-based; conditions: erythrocyte, pH 6.5, 1 h
Pseudomonas aeruginosa [5] = test: Antimicrobial activity against Pseudomonas aeruginosa ATCC 27853 assessed as reduction in bacterial growth at pH 6.5 in presence of NaCl; assay type: functional
Pseudomonas aeruginosa [6] = test: Antimicrobial activity against Pseudomonas aeruginosa ATCC 27853 assessed as reduction in bacterial growth at pH 7.4 in presence of NaCl; assay type: functional, organism-based
Pseudomonas aeruginosa [7] = test: Antimicrobial activity against Pseudomonas aeruginosa ATCC 27853 assessed as reduction in bacterial growth at pH 7.4 in presence of 50% serum; assay type: functional, organism-based
Pseudomonas aeruginosa [8] = test: Antimicrobial activity against Pseudomonas aeruginosa ATCC 27853 assessed as reduction in bacterial growth at pH 7.4 in presence of CaCl2; assay type: functional, organism-based
[9] = Ratio of MHC for hemolytic activity against human RBC assessed as hemoglobin release at pH 6.5 to MHC for hemolytic activity against human RBC assessed as hemoglobin release at pH 7.4; assay type: toxicity, cell-based, Erythrocyte; conditions: human red blood cells (RBC)
[10] = Cytotoxicity against mouse RAW264.7 cells assessed as inhibition of cell growth at pH 7.4 measured after 24 hrs by MTT assay; assay type: toxicity, cell-based
[11] = tested on: Staphylococcus epidermidis; test: Antibacterial activity against Staphylococcus epidermidis ATCC 12228 assessed as inhibition of bacterial growth at pH 6.5 incubated for 24 hrs by NCCLS protocol based method; assay type: functional
Pseudomonas aeruginosa [12] = test: Antibacterial activity against Pseudomonas aeruginosa ATCC 27853 assessed as inhibition of bacterial growth at pH 6.5 incubated for 24 hrs by NCCLS protocol based method; assay type: functional
Salmonella typhimurium [13] = test: Antibacterial activity against Salmonella typhimurium ATCC 14028 assessed as inhibition of bacterial growth at pH 6.5 incubated for 24 hrs by NCCLS protocol based method; assay type: functional, Salmonella enterica subsp. enterica serovar Typhimurium; conditions: Salmonella enterica
Escherichia coli [14] = test: Antibacterial activity against Escherichia coli ATCC 25922 assessed as inhibition of bacterial growth at pH 7.4 incubated for 24 hrs by NCCLS protocol based method; assay type: functional
Lipopolysaccharide (LPS) [15] = test: Displacement of BODIPY-TR-cadaverin from Pseudomonas aeruginosa ATCC 27316 Lipopolysaccharide at 1 to 64 uM at pH 7.4 incubated for 1 hr by fluorescence based analysis; conditions: dose 1-64 µM
Staphylococcus aureus [16] = test: Antibacterial activity against methicillin-resistant Staphylococcus aureus ATCC 43300 assessed as inhibition of bacterial growth at pH 6.5 incubated for 24 hrs by NCCLS protocol based method; assay type: functional
Staphylococcus aureus [17] = test: Antibacterial activity against Staphylococcus aureus ATCC 25923 assessed as inhibition of bacterial growth at pH 6.5 incubated for 24 hrs by NCCLS protocol based method; assay type: functional
Salmonella typhimurium [18] = test: Antibacterial activity against Salmonella enterica subsp. enterica serovar Typhimurium C77-31 assessed as inhibition of bacterial growth at pH 6.5 incubated for 24 hrs by NCCLS protocol based method; assay type: functional
Cell membrane [19] = test: Induction of cytoplasmic membrane depolarization in Pseudomonas aeruginosa ATCC 27853 assessed as increase in fluorescence intensity at acidic and alkaline pH by DiSC3-5 dye based fluorescence assay; assay type: subcellular; conditions: TDE = time-dependent effect
Lipopolysaccharide (LPS) [20] = test: Displacement of BODIPY-TR-cadaverin from Pseudomonas aeruginosa ATCC 27316 Lipopolysaccharide at 1 to 64 uM at pH 6.5 incubated for 1 hr by fluorescence based analysis; conditions: dose 1-64 µM
Staphylococcus aureus [21] = test: Antibacterial activity against Staphylococcus aureus ATCC 29213 assessed as inhibition of bacterial growth at pH 6.5 incubated for 24 hrs by NCCLS protocol based method; assay type: functional
[22] = tested on: Staphylococcus epidermidis; test: Antibacterial activity against Staphylococcus epidermidis ATCC 12228 assessed as inhibition of bacterial growth at pH 7.4 incubated for 24 hrs by NCCLS protocol based method; assay type: functional
Staphylococcus aureus [23] = test: Antibacterial activity against Staphylococcus aureus ATCC 29213 assessed as inhibition of bacterial growth at pH 7.4 incubated for 24 hrs by NCCLS protocol based method; assay type: functional
Cell membrane [24] = test: Induction of outer membrane permeabilization in Pseudomonas aeruginosa ATCC 27853 assessed as pH responsive ability by measuring fold increase in NPN uptake at 64 uM by NPN-dye based fluorescence analysis relative to control; assay type: subcellular
Escherichia coli [25] = test: Antibacterial activity against Escherichia coli ATCC 25922 assessed as inhibition of bacterial growth at pH 6.5 incubated for 24 hrs by NCCLS protocol based method; assay type: functional
Cell membrane [26] = test: Induction of outer membrane permeabilization in Pseudomonas aeruginosa ATCC 27853 assessed as increase in NPN uptake by NPN-dye based fluorescence analysis; assay type: subcellular; conditions: dose 1-64 µM
Salmonella typhimurium [27] = test: Antibacterial activity against Salmonella typhimurium ATCC 14028 assessed as inhibition of bacterial growth at pH 7.4 incubated for 24 hrs by NCCLS protocol based method; assay type: functional, Salmonella enterica subsp. enterica serovar Typhimurium; conditions: Salmonella enterica
Salmonella typhimurium [28] = test: Antibacterial activity against Salmonella enterica subsp. enterica serovar Typhimurium C77-31 assessed as inhibition of bacterial growth at pH 7.4 incubated for 24 hrs by NCCLS protocol based method; assay type: functional
Staphylococcus aureus [29] = test: Antibacterial activity against methicillin-resistant Staphylococcus aureus ATCC 43300 assessed as inhibition of bacterial growth at pH 7.4 incubated for 24 hrs by NCCLS protocol based method; assay type: functional
Staphylococcus aureus [30] = test: Antibacterial activity against Staphylococcus aureus ATCC 25923 assessed as inhibition of bacterial growth at pH 7.4 incubated for 24 hrs by NCCLS protocol based method; assay type: functional
Pseudomonas aeruginosa [31] = test: Antibacterial activity against Pseudomonas aeruginosa ATCC 27853 assessed as inhibition of bacterial growth at pH 7.4 incubated for 24 hrs by NCCLS protocol based method; assay type: functional

CC[C@H](C)[C@H](NC(=O)CN)C(=O)NCC(=O)N[C@@H](C)C(=O)N[C@H](C(=O)N[C@@H](CC(C)C)C(=O)N[C@@H](CCCCN)C(=O)N[C@H](C(=O)N[C@@H](CC(C)C)C(=O)N[C@H](C(=O)N[C@H](C(=O)NCC(=O)N[C@@H](CC(C)C)C(=O)N1CCC[C@H]1C(=O)N[C@@H](C)C(=O)N[C@@H](CC(C)C)C(=O)N[C@H](C(=O)N[C@@H](CO)C(=O)N[C@@H](Cc1c[nH]c2ccccc12)C(=O)N[C@H](C(=O)N[C@@H](CCCCN)C(=O)N[C@@H](CCCNC(=N)N)C(=O)N[C@@H](CCCCN)C(=O)N[C@@H](CCCNC(=N)N)C(=O)N[C@@H](CCC(N)=O)C(=O)N[C@@H](CCC(N)=O)C(N)=O)[C@@H](C)CC)[C@@H](C)CC)[C@@H](C)O)[C@@H](C)O)C(C)C)C(C)C [MELITTIN]
IC50 at 24 h [1]: 1300 nM
Activity (Pseudomonas aeruginosa [2]): inactive
MHC10 [3]: 4 µM
MHC10 [4]: 2 µM
Activity (Pseudomonas aeruginosa [5]): inactive
Activity (Pseudomonas aeruginosa [6]): inactive
Activity (Pseudomonas aeruginosa [7]): inactive
Activity (Pseudomonas aeruginosa [8]): inactive
selectivity ratio [9]: 0.5
IC50 at 24 h [10]: 1940 nM

H-FLFKLIPKVIKGLVKAIRK-NH2
MIC [11]: 2 µM
MIC (Pseudomonas aeruginosa [12]): 1 µM
IC50 at 24 h [1]: 1910 nM
MIC (Salmonella typhimurium [13]): 2 µM
MIC (Escherichia coli [14]): 2 µM
Activity (Lipopolysaccharide (LPS) [15]): Active
MHC10 [3]: 16 µM
MHC10 [4]: 2 µM
MIC (Staphylococcus aureus [16]): 2 µM
MIC (Staphylococcus aureus [17]): 2 µM
MIC (Salmonella typhimurium [18]): 2 µM
Activity (Cell membrane [19]): Tde
Activity (Lipopolysaccharide (LPS) [20]): Active
MIC (Staphylococcus aureus [21]): 2 µM
MIC [22]: 2 µM
MIC (Staphylococcus aureus [23]): 2 µM
Activity (Cell membrane [24]): inactive
MIC (Escherichia coli [25]): 1 µM
Activity (Cell membrane [26]): Dose-Dependent Effect
selectivity ratio [9]: 0.13
IC50 at 24 h [10]: 2450 nM
MIC (Salmonella typhimurium [27]): 2 µM
MIC (Salmonella typhimurium [28]): 4 µM
MIC (Staphylococcus aureus [29]): 2 µM
MIC (Staphylococcus aureus [30]): 2 µM
MIC (Pseudomonas aeruginosa [31]): 4 µM
